Source: patent publication US20240174696A1, “2,8-DIAZASPIRO[4.5]DECANE COMPOUNDS” (Genentech, Inc., priority 2021, published 2024)

How the values were obtained:
[1] = biological target: Human LATS2 catalytic domain (Homo sapiens (Human), UniProt Q9NRM7); test: LATS2 High ATP HTRF Assay; format: biochemical; conditions: no asterisk: LATS2 High ATP HTRF Assay, 5000 μM ATP, 0.05 nM LATS2
Method: Human LATS2 catalytic domain which contains the amino acids G553-V1088 (accession NP_055387) was purified in-house. The LATS2 catalytic domain was co-purified with Mob1b (accession NP_775739). The LATS2 biochemical HTRF assay was performed using the HTRF KinEASE-STK S1 Kit (Cisbio, Cat #62ST1PEC), following the protocol from the manufacturer. Compounds were dispensed by the Echo Liquid Handler (Labcyte) into a white 384-well plate (PerkinElmer, Cat #6008289). 3 uL of 2×LATS2 enzyme solution was added to the compounds, following by a 10 minute incubation at room temperature. Then, 2×ATP and STK S1 peptide solution was added to initiate the one hour enzyme reaction at room temperature. The final condition of the reaction was 0.2 nM LATS2, 50 μM ATP, 0.5 μM STK S1 peptide in 50 mM HEPES pH7.2, 10 mM MgCl2, 0.1% BGG, 0.005% Brij-35, 1 mM DTT. The reaction was quenched by adding 6 uL of the detection mixture which contained Streptavidin XL665 and STK Antibody-Cryptate (Cisbio), incubate for 1 hour at room temperature. The HTRF (665 nm/620 nm) signal was read on the Envision plater reader (PerkinElmer). The IC50 values were determined by fitting the % inhibition with a nonlinear four-parameter logistical equation. The Ki values were calculated using the Cheng-Prusoff equation for a competitive inhibitor, IC50═Ki (1+S/Km)+M [E] with ATP Km for LATS2=105 μM.
The LATS2 high ATP HTRF assay was performed using the same protocol as the Standard LATS2 HTRF assay. The final condition of the reaction was 0.05 nM LATS2, 5000 μM ATP, 0.5 μM STK S1 peptide in 50 mM HEPES pH7.2, 10 mM MgCl2, 0.1% BGG, 0.005% Brij-35, 1 mM DTT and the 2 hours enzyme reaction at room temperature.

[2] = test system: TAZ nuclear translocation in SW1990 cells; test: TAZ Nuclear Translocation Assay; format: cell-based; conditions: Homo sapiens, 4 hours
Method: The SW1990 cells (ATCC, CRL2172) were seeded at 5000 cells/well by adding 30 μL/well of cells in RPMI1640, 10% FBS, 2 mM glutamine culture media to a 384-well plate (Greiner 781091). The cells were incubated overnight at 37° C. Next day, test compounds were directly added to the cells using the Echo Liquid Handler (Labcyte), incubate at 37° C. for 4 hours. The cells were fixed with 4% paraformaldehyde and incubate for 20 minutes at room temperature. After washing three times with 100 μL PBS, 0.5% Triton X-100 was added to permeabilize the cells, incubate at room temperature for 5 minutes, following by washing the cells three times with PBS. 3% BSA was added to the cells, incubate for one hour at room temperature, following by washing three times with PBS. 50 μL of 1:750 diluted rabbit Anti-TAZ (Cell signaling D316D) in 3% BSA was added to the cells, incubate at 4° C. overnight. Next day, after washing the cells three times with PBS, 50 μL of 1:1250 diluted donkey anti-Rabbit, Alexa Fluor 488 (Invitrogen A21206) and 1:6250 diluted Hoechst 33342 (Molecular Probes H-21492) in 3% BSA was added to the cells, incubate at room temperature for one hour. The cells were washed three times with PBS, then image with the CellInsight CX7 High-Content Imager. The ratio of nuclear mean fluorescence intensity and cytoplasmic ring region mean fluorescence intensity was calculated. The % inhibition was normalized using DMSO as 0% inhibition and an inhibitor control as 100% inhibition. The EC50 values were calculated by fitting the % inhibition with a nonlinear four-parameter logistical equation.

Sequence of Human LATS2 catalytic domain (Q9NRM7 553-1088): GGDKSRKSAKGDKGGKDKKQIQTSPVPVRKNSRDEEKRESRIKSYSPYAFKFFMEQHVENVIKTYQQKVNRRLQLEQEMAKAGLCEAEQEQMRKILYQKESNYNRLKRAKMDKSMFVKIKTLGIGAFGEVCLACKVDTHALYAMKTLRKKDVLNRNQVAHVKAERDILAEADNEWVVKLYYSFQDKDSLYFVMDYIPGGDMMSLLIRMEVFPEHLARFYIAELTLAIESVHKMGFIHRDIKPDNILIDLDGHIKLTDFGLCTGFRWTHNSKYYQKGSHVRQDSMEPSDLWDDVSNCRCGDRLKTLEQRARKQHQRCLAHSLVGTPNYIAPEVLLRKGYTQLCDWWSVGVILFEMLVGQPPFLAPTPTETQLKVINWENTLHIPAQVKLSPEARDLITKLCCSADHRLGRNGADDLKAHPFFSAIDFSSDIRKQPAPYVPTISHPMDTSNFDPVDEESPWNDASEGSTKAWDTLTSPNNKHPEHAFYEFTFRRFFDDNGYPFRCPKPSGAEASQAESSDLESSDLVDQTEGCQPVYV
Sequence of Human LATS2 catalytic domain (Q7L9L4 whole entry partner, the tested form may be a part): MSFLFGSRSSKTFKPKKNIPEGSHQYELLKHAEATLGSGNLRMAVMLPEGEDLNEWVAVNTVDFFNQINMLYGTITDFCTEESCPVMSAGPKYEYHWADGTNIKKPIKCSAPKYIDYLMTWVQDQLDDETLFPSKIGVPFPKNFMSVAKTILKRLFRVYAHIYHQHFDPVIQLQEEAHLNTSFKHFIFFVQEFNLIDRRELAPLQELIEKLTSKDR

What does the source list for O[C@@H]1CC[C@H]1N1CCC2(CCN(c3nc(-c4ccncc4)nc4cnccc34)CC2)C1 (single isomer, unassigned) [Compound 179]?
Ki [1]: 0.1 nM; EC50 [2]: 740 nM

O[C@@H]1CC[C@@H]1N1CCC2(CCN(c3nc(-c4ccncc4)nc4cnccc34)CC2)C1 (single isomer, unassigned) [Compound 180] was tested. Which Ki [1] did it give?
The Ki was 1.38 nM.

What about the EC50 [2] of the same compound?
The EC50 was 1300 nM.

What does the source list for O[C@H]1CC[C@H]1N1CCC2(CCN(c3nc(-c4ccncc4)nc4cnccc34)CC2)C1 (single isomer, unassigned) [Compound 181]?
Ki [1]: 1.87 nM; EC50 [2]: 1900 nM

Which Ki [1] does the source give for Cc1n[nH]cc1-c1nc(N2CCC3(CC2)CCN([C@@H]2CCC[C@H]2O)C3)c2ccncc2n1 (single isomer, unassigned) [Compound 184] here?
Its Ki is 0.037 nM.

And the EC50 [2]?
The EC50 was 1400 nM.

Which Ki [1] does the source give for Cc1[nH]ncc1-c1nc(N2CCC3(CC2)CCN([C@H]2CCC[C@@H]2O)C3)c2ccncc2n1 (single isomer, unassigned) [Compound 185] here?
The Ki was 0.047 nM.

What about the EC50 [2] of the same compound?
Its EC50 is 860 nM.

How did the Ki [1] turn out when COC[C@H]1CC2(CCN(c3nc(-c4ccncc4)nc4cnccc34)CC2)CN1 (single isomer, unassigned) [Example 221] was run?
The Ki was 0.32 nM.

What about the EC50 [2] of the same compound?
Its EC50 is 230 nM.

With COC[C@@H]1CC2(CCN(c3nc(-c4ccncc4)nc4cnccc34)CC2)CN1 (single isomer, unassigned) [Example 222] as the compound, how does the Ki [1] read?
Its Ki is 0.1 nM.

What about the EC50 [2] of the same compound?
Its EC50 is 340 nM.

With Cc1[nH]ncc1-c1nc(N2CCC3(CC2)CCN([C@@H]2CC[C@H]2O)C3)c2ccncc2n1 (single isomer, unassigned) [Example 228] as the compound, how does the Ki [1] read?
The Ki was 0.067 nM.

What about the EC50 [2] of the same compound?
The EC50 was 2700 nM.

For Cc1[nH]ncc1-c1nc(N2CCC3(CC2)CCN([C@H]2CC[C@@H]2O)C3)c2ccncc2n1 (single isomer, unassigned) [Example 229], which Ki [1] is on record?
Its Ki is 0.063 nM.

And the EC50 [2]?
Its EC50 is 2100 nM.

For Cc1[nH]ncc1-c1nc(N2CCC3(CC2)CCN([C@@H]2CC[C@@H]2O)C3)c2ccncc2n1 (single isomer, unassigned) [Example 230], which Ki [1] is on record?
The Ki was 0.043 nM.

What about the EC50 [2] of the same compound?
Its EC50 is 1000 nM.

Which results are given for Cc1[nH]ncc1-c1nc(N2CCC3(CC2)CCN([C@H]2CC[C@H]2O)C3)c2ccncc2n1 (single isomer, unassigned) [Example 231]?
Ki [1]: 0.11 nM; EC50 [2]: 900 nM

What does the source list for NS(=O)(=O)CCN1CCC2(CCN(c3nc(-c4ccncc4)nc4cnccc34)CC2)C1 [Compound 109, 2-(8-(2-(pyridin-4-yl)pyrido[3,4-d]pyrimidin-4-yl)-2,8-diazaspiro[4.5]decan-2-yl)ethanesulfonamide]?
Ki [1]: 0.043 nM; EC50 [2]: 3800 nM

How did the Ki [1] turn out when CC(C)N1CCC2(CCN(c3nc(-c4ccncc4)nc4cnccc34)CC2)C1 [Compound 117, 4-(2-isopropyl-2,8-diazaspiro[4.5]decan-8-yl)-2-(pyridin-4-yl)pyrido[3,4-d]pyrimidine] was run?
The Ki was 0.41 nM.

And the EC50 [2]?
Its EC50 is 1600 nM.

With c1cc(-c2nc(N3CCC4(CC3)CCN(C3CCCCC3)C4)c3ccncc3n2)ccn1 [Compound 119, 4-(2-cyclohexyl-2,8-diazaspiro[4.5]decan-8-yl)-2-(pyridin-4-yl)pyrido[3,4-d]pyrimidine] as the compound, how does the Ki [1] read?
The Ki was 0.03 nM.

What about the EC50 [2] of the same compound?
The EC50 was 430 nM.

What does the source list for CC(=O)NCCN1CCC2(CCN(c3nc(-c4ccncc4)nc4cnccc34)CC2)C1 [Compound 123, N-(2-(8-(2-(pyridin-4-yl)pyrido[3,4-d]pyrimidin-4-yl)-2,8-diazaspiro[4.5]decan-2-yl)ethyl)acetamide]?
Ki [1]: 1.09 nM; EC50 [2]: 2100 nM

For CS(=O)(=O)NCCN1CCC2(CCN(c3nc(-c4ccncc4)nc4cnccc34)CC2)C1 [Compound 126, N-(2-(8-(2-(pyridin-4-yl)pyrido[3,4-d]pyrimidin-4-yl)-2,8-diazaspiro[4.5]decan-2-yl)ethyl)methanesulfonamide], which Ki [1] is on record?
The Ki was 0.11 nM.

What about the EC50 [2] of the same compound?
Its EC50 is 960 nM.

What does the source list for NC(=O)CN1CCC2(CCN(c3nc(-c4ccncc4)nc4cnccc34)CC2)C1 [Compound 130, 2-(8-(2-(pyridin-4-yl)pyrido[3,4-d]pyrimidin-4-yl)-2,8-diazaspiro[4.5]decan-2-yl)acetamide]?
Ki [1]: 0.45 nM; EC50 [2]: 1200 nM

What does the source list for NC(=O)CCN1CCC2(CCN(c3nc(-c4ccncc4)nc4cnccc34)CC2)C1 [Compound 132, 3-(8-(2-(pyridin-4-yl)pyrido[3,4-d]pyrimidin-4-yl)-2,8-diazaspiro[4.5]decan-2-yl)propanamide]?
Ki [1]: 0.25 nM; EC50 [2]: 2400 nM

Which results are given for FCCN1CCC2(CCN(c3nc(-c4ccncc4)nc4cnccc34)CC2)C1 [Compound 134, 4-(2-(2-fluoroethyl)-2,8-diazaspiro[4.5]decan-8-yl)-2-(pyridin-4-yl)pyrido[3,4-d]pyrimidine]?
Ki [1]: 0.72 nM; EC50 [2]: 1100 nM

Which Ki [1] does the source give for FCCCN1CCC2(CCN(c3nc(-c4ccncc4)nc4cnccc34)CC2)C1 [Compound 135, 4-(2-(3-fluoropropyl)-2,8-diazaspiro[4.5]decan-8-yl)-2-(pyridin-4-yl)pyrido[3,4-d]pyrimidine] here?
Its Ki is 0.063 nM.

And the EC50 [2]?
The EC50 was 420 nM.

Which Ki [1] does the source give for N#CCCN1CCC2(CCN(c3nc(-c4ccncc4)nc4cnccc34)CC2)C1 [Compound 136, 3-(8-(2-(pyridin-4-yl)pyrido[3,4-d]pyrimidin-4-yl)-2,8-diazaspiro[4.5]decan-2-yl)propanenitrile] here?
Its Ki is 0.45 nM.

What about the EC50 [2] of the same compound?
Its EC50 is 3200 nM.

How did the Ki [1] turn out when c1cc(-c2nc(N3CCC4(CCN(c5cn[nH]c5)C4)CC3)c3ccncc3n2)ccn1 [Compound 141, 4-(2-(1H-pyrazol-4-yl)-2,8-diazaspiro[4.5]decan-8-yl)-2-(pyridin-4-yl)pyrido[3,4-d]pyrimidine] was run?
The Ki was 3.29 nM.

What about the EC50 [2] of the same compound?
The EC50 was over 10000 nM.

What does the source list for Cc1n[nH]cc1-c1nc(N2CCC3(CCNC3)CC2)c2ccncc2n1 [Compound 142, 2-(3-methyl-1H-pyrazol-4-yl)-4-(2,8-diazaspiro[4.5]decan-8-yl)pyrido[3,4-d]pyrimidine]?
Ki [1]: 0.037 nM; EC50 [2]: > 10000 nM

Which results are given for Cc1n[nH]cc1-c1nc(N2CCC3(CCN(CCO)C3)CC2)c2ccncc2n1 [Compound 146, 2-(8-(2-(3-methyl-1H-pyrazol-4-yl)pyrido[3,4-d]pyrimidin-4-yl)-2,8-diazaspiro[4.5]decan-2-yl)ethan-1-ol]?
Ki [1]: 0.088 nM; EC50 [2]: 2700 nM

With Cc1n[nH]cc1-c1nc(N2CCC3(CC2)CCN(C2CCOC2)C3)c2ccncc2n1 (stereo not shown) [Compound 148, 2-(3-methyl-1H-pyrazol-4-yl)-4-(2-(tetrahydrofuran-3-yl)-2,8-diazaspiro[4.5]decan-8-yl)pyrido[3,4-d]pyrimidine] as the compound, how does the Ki [1] read?
The Ki was 0.12 nM.

What about the EC50 [2] of the same compound?
The EC50 was 560 nM.

With Cc1n[nH]cc1-c1nc(N2CCC3(CCN(CCCO)C3)CC2)c2ccncc2n1 [Compound 149, 3-(8-(2-(3-methyl-1H-pyrazol-4-yl)pyrido[3,4-d]pyrimidin-4-yl)-2,8-diazaspiro[4.5]decan-2-yl)propan-1-ol] as the compound, how does the Ki [1] read?
Its Ki is 0.045 nM.

And the EC50 [2]?
The EC50 was 2500 nM.

With Cc1n[nH]cc1-c1nc(N2CCC3(CCN(CC(C)(C)O)C3)CC2)c2ccncc2n1 [Compound 150, 2-methyl-1-(8-(2-(3-methyl-1H-pyrazol-4-yl)pyrido[3,4-d]pyrimidin-4-yl)-2,8-diazaspiro[4.5]decan-2-yl)propan-2-o0] as the compound, how does the Ki [1] read?
The Ki was 0.059 nM.

And the EC50 [2]?
The EC50 was 280 nM.

What does the source list for Cc1n[nH]cc1-c1nc(N2CCC3(CCN(CC4COC4)C3)CC2)c2ccncc2n1 [Compound 152, 2-(3-methyl-1H-pyrazol-4-yl)-4-(2-(oxetan-3-ylmethyl)-2,8-diazaspiro[4.5]decan-8-yl)pyrido[3,4-d]pyrimidine]?
Ki [1]: 0.053 nM; EC50 [2]: 840 nM

Which results are given for Clc1[nH]ncc1-c1nc(N2CCC3(CCNC3)CC2)c2ccncc2n1 [Compound 153, 2-(5-chloro-1H-pyrazol-4-yl)-4-(2,8-diazaspiro[4.5]decan-8-yl)pyrido[3,4-d]pyrimidine]?
Ki [1]: 0.11 nM; EC50 [2]: > 10000 nM
